Assay results reported in publication PMC6320911, “Discovery of a Natural Syk Inhibitor from Chinese Medicine through a Docking-Based Virtual Screening and Biological Assay Study” (Molecules, 2018).

Target: T1, Spleen tyrosine kinase (Syk) (Homo sapiens, UniProt P43405)
T1 construct: Syk (ab60886)
Assay: ADP-Glo luminescent kinase assay with dose-response ([…] ATP in substrate solution, poly Glu:Tyr […])
Type: biochemical

## Cc1coc2c1C(=O)C(=O)c1c-2ccc2c(C)cccc12 [compound 13, Tanshinone I]
  IC50: 1640 nM
